Test results as given in ChEMBL document CHEMBL5523739, “NN1213 - A Potent, Long-Acting, and Selective Analog of Human Amylin” (J Med Chem, 2024).
Converted amounts (≈) assume the structure as drawn. The source made the active and inactive calls. No cut-off for these calls is given here.

What was measured:
[1] = molecular target: Amylin receptor AMY1, CALCR/RAMP1 (Homo sapiens, UniProt O60894+P30988); experiment: Agonist activity at human AMY1R complex of CTR/RAMP1 transduced in human HeLa cells by cAMP assay; assay type: functional, cell-based
Sequence of Amylin receptor AMY1, CALCR/RAMP1 (O60894 whole entry, one chain of several): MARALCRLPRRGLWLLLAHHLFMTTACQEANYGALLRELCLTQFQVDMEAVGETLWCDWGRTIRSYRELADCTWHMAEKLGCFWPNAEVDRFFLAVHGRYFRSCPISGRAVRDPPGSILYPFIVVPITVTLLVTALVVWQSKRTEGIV

[2] = Solubility of compound at pH 6.5 incubated overnight by UPLC analysis; assay type: physicochemical; conditions: buffer
Calcitonin receptor [3] = molecular target: T1, Calcitonin receptor (Homo sapiens, UniProt P30988); experiment: Agonist activity at human CTR transduced in human HeLa cells by cAMP assay; assay type: functional, cell-based
T1 sequence (P30988 whole entry): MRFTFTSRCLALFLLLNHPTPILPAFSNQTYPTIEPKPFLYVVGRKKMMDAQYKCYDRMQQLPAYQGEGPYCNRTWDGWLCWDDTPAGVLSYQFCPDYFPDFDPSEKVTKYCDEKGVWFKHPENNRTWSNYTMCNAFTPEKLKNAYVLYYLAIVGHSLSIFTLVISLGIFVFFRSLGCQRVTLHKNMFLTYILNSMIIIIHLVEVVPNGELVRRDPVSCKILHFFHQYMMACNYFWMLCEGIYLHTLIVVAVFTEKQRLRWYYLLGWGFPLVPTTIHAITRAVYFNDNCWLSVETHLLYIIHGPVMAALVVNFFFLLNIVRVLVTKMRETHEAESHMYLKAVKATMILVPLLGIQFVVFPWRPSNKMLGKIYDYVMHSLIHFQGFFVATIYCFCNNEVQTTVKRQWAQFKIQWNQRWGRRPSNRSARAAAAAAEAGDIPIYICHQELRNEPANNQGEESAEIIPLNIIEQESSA

Canis familiaris [4] = experiment: Appetite suppressing activity in dog assessed as reduction in food intake at 300 nmol/kg, sc measured for 48 hrs relative to control; assay type: functional, Canis lupus familiaris; set-up: scale not given: the % may be the effect or the level left
Rattus norvegicus [5] = experiment: Appetite suppressing activity in HFD-fed DIO rat model assessed as reduction in body weight administered subcutaneously once daily measured after 21 days; assay type: functional, organism-based; conditions: dose 0.7-22 nmol/kg, route sc, time 21.0 day
[6] = Terminal half life in Beagle dog at 6 nmol/kg, iv; assay type: ADME, Canis lupus familiaris; conditions: in vivo, read-out: beta t1/2 (converted)
Canis familiaris [7] = experiment: Appetite suppressing activity in dog assessed as reduction in food intake at 30 nmol/kg, sc measured upto 7 days; assay type: functional, organism-based; conditions: Canis lupus familiaris, time <= 7.0 day
[8] = molecular target: T2, Amylin receptor AMY3; CALCR/RAMP3 (Homo sapiens, UniProt O60896+P30988); experiment: Displacement of 125I-rat amylin from human AMY3R complex of CTR/RAMP3 expressed in Baby hamster kidney cell membrane incubated for 120 mins by SPA method; assay type: cell membranes
T2 sequence (P30988 whole entry): T1 sequence (P30988 whole entry)
T2 sequence (O60896 whole entry): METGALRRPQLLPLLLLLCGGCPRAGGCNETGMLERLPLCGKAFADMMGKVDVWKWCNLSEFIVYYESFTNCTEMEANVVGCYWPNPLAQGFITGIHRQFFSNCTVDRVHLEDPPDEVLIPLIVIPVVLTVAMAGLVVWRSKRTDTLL

Canis familiaris [9] = experiment: Appetite suppressing activity in dog assessed as reduction in food intake administered subcutaneously measured for 48 hrs; assay type: functional, organism-based; conditions: Canis lupus familiaris, dose 3-300 nmol/kg, route sc
Rattus norvegicus [10] = experiment: Appetite suppressing activity in HFD-fed DIO rat model assessed as reduction in food intake at 0.7 to 22 nmol/kg, sc qd measured after 15 days; assay type: functional, organism-based; conditions: dose 0.7-22 nmol/kg, time 15.0 day
Rattus norvegicus [11] = experiment: Appetite suppressing activity in HFD-fed DIO rat model assessed as reduction in body weight at 0.7 to 22 nmol/kg, sc qd measured after 15 days; assay type: functional, organism-based; conditions: dose 0.7-22 nmol/kg, time 15.0 day
[12] = Terminal half life in rabbit at 2 nmol/kg, iv; assay type: ADME, Oryctolagus cuniculus; conditions: in vivo, read-out: beta t1/2 (converted)
Rattus norvegicus [13] = experiment: Appetite suppressing activity in HFD-fed DIO rat model assessed as body weight lost at 22 nmol/kg, sc qd measured after 21 days; assay type: functional; conditions: time 21 day
[14] = molecular target: T3, Amylin receptor AMY3; CALCR/RAMP3 (Rattus norvegicus, UniProt P32214+Q9JJ73); experiment: Agonist activity at rat AMY3R complex of CTR/RAMP3 expressed in Baby hamster kidney cells incubated for 3 hrs by cAMP assay; assay type: functional, cell-based, Baby hamster kidney cell
T3 sequence (P32214 whole entry): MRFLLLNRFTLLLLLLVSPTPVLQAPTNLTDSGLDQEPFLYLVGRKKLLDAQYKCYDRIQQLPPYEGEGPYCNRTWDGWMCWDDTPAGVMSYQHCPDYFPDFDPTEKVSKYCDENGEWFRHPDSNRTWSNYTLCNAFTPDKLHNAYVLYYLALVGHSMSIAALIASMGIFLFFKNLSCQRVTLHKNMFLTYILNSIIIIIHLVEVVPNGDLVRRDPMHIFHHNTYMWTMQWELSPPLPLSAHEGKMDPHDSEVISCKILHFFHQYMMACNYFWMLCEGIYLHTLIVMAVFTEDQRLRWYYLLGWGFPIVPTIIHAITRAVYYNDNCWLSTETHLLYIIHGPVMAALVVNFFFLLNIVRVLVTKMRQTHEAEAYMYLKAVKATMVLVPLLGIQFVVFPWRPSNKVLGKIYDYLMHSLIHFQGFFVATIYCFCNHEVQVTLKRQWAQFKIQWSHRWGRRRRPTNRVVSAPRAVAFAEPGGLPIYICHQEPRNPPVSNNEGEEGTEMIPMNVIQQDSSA
T3 sequence (Q9JJ73 whole entry): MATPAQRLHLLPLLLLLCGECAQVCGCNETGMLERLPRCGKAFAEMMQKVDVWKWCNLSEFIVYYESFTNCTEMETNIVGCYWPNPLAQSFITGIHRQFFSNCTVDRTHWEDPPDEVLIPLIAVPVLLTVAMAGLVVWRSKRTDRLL

[15] = Toxicity in dog assessed as vomiting at 3 to 300 nmol/kg, sc; set-up: species or system Canis lupus familiaris; conditions: in vivo, dose 3-300 nmol/kg
Rattus norvegicus [16] = experiment: Appetite suppressing activity in rat assessed as reduction in food intake at 30 nmol/kg, sc measured for 24 to 48 hrs relative to control; assay type: functional; set-up: scale not given: the % may be the effect or the level left; conditions: time 24-48 hrs
Canis familiaris [17] = experiment: Appetite suppressing activity in dog assessed as reduction in food intake at 3 nmol/kg, sc measured for 48 hrs; assay type: functional, organism-based; conditions: Canis lupus familiaris
Calcitonin receptor [18] = molecular target: T4, Calcitonin receptor (Rattus norvegicus, UniProt P32214); experiment: Agonist activity at rat CTR expressed in Baby hamster kidney cells incubated for 3 hrs by cAMP assay; assay type: functional, cell-based, Baby hamster kidney cell
T4 sequence (P32214 whole entry): T3 sequence (P32214 whole entry)

[19] = Solubility of compound at pH 5 incubated overnight by UPLC analysis; assay type: physicochemical; conditions: buffer
Rattus norvegicus [20] = experiment: Appetite suppressing activity in rat assessed as reduction in food intake at 30 nmol/kg, sc measured upto 24 hrs relative to control; assay type: functional; set-up: scale not given: the % may be the effect or the level left
[21] = Terminal half life in Gottingen minipig at 4.8 nmol/kg, iv; assay type: ADME, Sus scrofa; conditions: pig, in vivo, read-out: beta t1/2 (converted)
Rattus norvegicus [22] = experiment: Appetite suppressing activity in HFD-fed DIO rat model assessed as reduction in body weight administered subcutaneously once daily measured for 21 days; assay type: functional, organism-based; conditions: dose 0.7-22 nmol/kg, route sc, time 21.0 day
[23] = Solubility of compound at pH 7 incubated overnight by UPLC analysis; assay type: physicochemical; conditions: buffer
Rattus norvegicus [24] = experiment: Appetite suppressing activity in rat assessed as reduction in food intake administered subcutaneously measured for 48 hrs; assay type: functional, organism-based; conditions: dose 3-100 nmol/kg, route sc
Rattus norvegicus [25] = experiment: Appetite suppressing activity in HFD-fed DIO rat model assessed as reduction in body weight at 2.2 to 22 nmol/kg, sc qd measured for 21 days relative to control; assay type: functional; set-up: scale not given: the % may be the effect or the level left; conditions: dose 2.2-22 nmol/kg, time 21 day
[26] = Solubility of compound at pH 6 incubated overnight by UPLC analysis; assay type: physicochemical; conditions: buffer

SMILES: CC[C@H](C)[C@H](NC(=O)[C@H](C)NC(=O)CNC(=O)[C@H](Cc1ccccc1)NC(=O)[C@H](CC(N)=O)NC(=O)[C@@H]1CCCN1C(=O)[C@H](CO)NC(=O)[C@H](CO)NC(=O)[C@H](Cc1c[nH]cn1)NC(=O)[C@H](CCCNC(=N)N)NC(=O)[C@H](CC(C)C)NC(=O)[C@H](Cc1ccccc1)NC(=O)[C@H](CC(=O)O)NC(=O)[C@H](C)NC(=O)[C@H](CC(C)C)NC(=O)[C@H](CCCNC(=N)N)NC(=O)[C@H](CCC(N)=O)NC(=O)[C@@H](NC(=O)[C@H](C)NC(=O)[C@@H]1CSSC[C@H](NC(=O)[C@@H](N)CCCCN)C(=O)N[C@@H](CC(N)=O)C(=O)N[C@@H]([C@@H](C)O)C(=O)N[C@@H](C)C(=O)N[C@@H]([C@@H](C)O)C(=O)N1)[C@@H](C)O)C(=O)N1CCC[C@H]1C(=O)N[C@@H](CO)C(=O)N[C@@H](CO)C(=O)N[C@H](C(=O)N[C@@H](CC(N)=O)C(=O)N[C@H](C(=O)NCC(=O)N[C@@H](CO)C(=O)N[C@@H](CCCNC(=N)N)C(=O)N[C@H](C(=O)N[C@@H](Cc1ccc(O)cc1)C(N)=O)[C@@H](C)O)C(C)C)[C@@H](C)O
- EC50 [1]: 0.0575 nM
- solubility [2]: ≥ 200 µM
- EC50 (Calcitonin receptor [3]): 1.74 nM
- Activity (Canis familiaris [4]): 90%
- Activity (Rattus norvegicus [5]): Dose-Dependent Effect
- half-life [6]: ~76 h
- Activity (Canis familiaris [7]): Active
- IC50 [8]: 0.561 nM
- Activity (Canis familiaris [9]): Dose-Dependent Effect
- Activity (Rattus norvegicus [10]): inactive
- Activity (Rattus norvegicus [11]): inactive
- half-life [12]: ~50 h
- Activity (Rattus norvegicus [13]): 69.6 g
- EC50 [14]: 0.262 nM
- Activity [15]: Non-Toxic
- Activity (Rattus norvegicus [16]): 50%
- Activity (Canis familiaris [17]): inactive
- EC50 (Calcitonin receptor [18]): 102 nM
- solubility [19]: ≥ 200 µM
- Activity (Rattus norvegicus [20]): 70%
- half-life [21]: ~115 h
- Activity (Rattus norvegicus [22]): Dose-Dependent Effect
- solubility [23]: 155 µM (≈ 615 µg/mL)
- Activity (Rattus norvegicus [24]): Dose-Dependent Effect
- Activity (Rattus norvegicus [25]): 8.7%
- solubility [26]: ≥ 200 µM
